EP4610262A1, “MACROCYCLIC COMPOUND AS CDK9 INHIBITOR AND USE THEREOF” (Artivila Biopharma, priority 2022, dated 2024)

Tests used:
CDK9 = CDK9 (Homo sapiens, UniProt P50750); assay: Inhibition of CDK9 kinase activity (caliper mobility shift assay); format: biochemical; details: for IC50: 10 concentrations from 10 µM, three-fold dilutions
Experimental: Compounds were tested at a concentration of 10 nM with detection in duplicate wells, or tested at 10 concentrations starting from 10 µM with three-fold serial dilutions, with detection in duplicate wells.
The inhibitory effect of the compounds on the activity of CDK9 protein kinase was detected by the caliper mobility shift assay method. 250 nL of the compound at 100-fold final concentration was transferred to a target 384-well-plate with a dispenser Echo 550. A kinase solution at 2.5-fold final concentration was prepared using 1× kinase buffer. 10 µL of the kinase solution at 2.5-fold final concentration was added to the compound well and positive control well respectively. 10 µL of 1× kinase buffer was added to the negative control well. The 384-well plate was centrifuged at 1000 rpm for 30 seconds and incubated at room temperature for 10 minutes. A mixed solution of ATP and kinase substrate at 5/3-fold final concentration was prepared with 1× kinase buffer, and to the 384-well plate was added with 15 µL per well of the mixed solution of ATP and substrate at 5/3-fold final concentration to start the reaction. The plate was centrifuged at 1000 rpm for 30 seconds, shaken to mix evenly, and incubated at room temperature for a corresponding time. 30 µL of detection stopping solution was added to terminate the kinase reaction. The 384-well plate was centrifuged at 1000 rpm for 30 seconds and shaken to mix evenly. The conversion rate was read with Caliper EZ Reader. The percent conversion inhibition rate = (% positive control conversion rate mean - % sample conversion rate / (% positive control conversion rate mean - % negative control conversion rate mean). Among them: negative control wells represent the conversion rate readings of kinase buffer background wells; positive control wells represent the conversion rate readings of wells without inhibition by compound. With the log value of concentration as the x-axis and the percentage inhibition rate as the y-axis, a dose-response curve was fitted using the log (inhibitor) vs. response -Variable slope of the analysis software GraphPad Prism 5 to obtain the IC50 value of each compound on enzyme activity. Calculation formula: y=Bottom + (Top-Bottom)/(1+10^((LogIC50-x) × hillslope)), x: logarithm of inhibitor concentration; y: % inhibition rate.

HCC1187 = assay: CDK9 cell activity assay, cell growth inhibition (CellTiter-Glo, 72 hours); format: cell-based; details: Homo sapiens
Experimental: (§1) In the CDK9 cell activity assay, the cell line MV-4-11 was cultured in IMDM culture medium containing 10% fetal bovine serum (containing 100 U/mL penicillin and 0.1 g/L streptomycin); the cell line HCC1187 was cultured in RPMI-1640 culture medium containing 10% fetal bovine serum (containing 100 U/mL penicillin and 0.1 g/L streptomycin); the cell line Mia Paca-2 was cultured in DMEM containing 10% fetal bovine serum and 2.5% horse serum (containing 100 U/mL penicillin and 0.1 g/L streptomycin); and the cell line A375 was cultured in RPMI-1640 culture medium containing 10% fetal bovine serum (containing 100 U/mL penicillin and 0.1 g/L streptomycin). All cells were cultured in an incubator with saturated humidity at 37°C with 5% CO2.
(§2) When MV-4-11 cells, HCC1187 cells, Mia Paca-2 cells, and A375 cells grew to 80%-90% confluence, they were digested with trypsin, resuspended, counted, and diluted to a certain cell density with complete medium. 100 µL of the cells was plated into each well of a 96-well plate, and the complete medium was used as a background control. The cells were cultured overnight in an incubator with saturated humidity at 37°C with 5% CO2. The compounds were diluted with DMSO to a final concentration of 200×. 3 µL of the stock solution of the above compounds in DMSO was added to 197 µL of complete medium, and 50 µL of the compound diluted in the medium was added to the cells of each well. The cells were cultured in an incubator with saturated humidity at 37°C with 5% CO2 for 72 hours. After 72 hours, the culture plates were placed at room temperature for equilibrium. 40 µL of CellTiter-Glo® reagent was added to each well. The plate was mixed evenly on a shaker for 2 minutes to lyse the cells then incubated at room temperature for 60 minutes to stabilize the chemiluminescent signal, and the chemiluminescence was read using a PE EnVision microplate reader. The inhibition rate on cell growth was calculated as % Inh = (DMSO well - compound treatment well) / (DMSO well - background well) x 100, and fitting was performed using GraphPad Prism 5 to obtain the IC50 values against cell growth.

MV-4-11 = assay: as above; format: cell-based; details: Homo sapiens, MV4-11
Experimental: as §1, §2

CDK9, sequence (P50750 whole entry): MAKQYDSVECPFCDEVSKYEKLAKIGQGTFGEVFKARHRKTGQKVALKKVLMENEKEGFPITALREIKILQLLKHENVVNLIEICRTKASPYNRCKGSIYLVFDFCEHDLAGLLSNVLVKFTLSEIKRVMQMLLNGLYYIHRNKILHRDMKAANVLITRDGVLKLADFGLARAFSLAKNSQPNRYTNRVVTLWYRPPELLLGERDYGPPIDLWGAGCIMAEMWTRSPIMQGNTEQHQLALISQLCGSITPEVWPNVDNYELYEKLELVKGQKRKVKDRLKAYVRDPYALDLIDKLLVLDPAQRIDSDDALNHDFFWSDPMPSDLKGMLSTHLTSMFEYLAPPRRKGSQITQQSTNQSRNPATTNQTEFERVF
CDK9, sequence (O60563 whole entry partner): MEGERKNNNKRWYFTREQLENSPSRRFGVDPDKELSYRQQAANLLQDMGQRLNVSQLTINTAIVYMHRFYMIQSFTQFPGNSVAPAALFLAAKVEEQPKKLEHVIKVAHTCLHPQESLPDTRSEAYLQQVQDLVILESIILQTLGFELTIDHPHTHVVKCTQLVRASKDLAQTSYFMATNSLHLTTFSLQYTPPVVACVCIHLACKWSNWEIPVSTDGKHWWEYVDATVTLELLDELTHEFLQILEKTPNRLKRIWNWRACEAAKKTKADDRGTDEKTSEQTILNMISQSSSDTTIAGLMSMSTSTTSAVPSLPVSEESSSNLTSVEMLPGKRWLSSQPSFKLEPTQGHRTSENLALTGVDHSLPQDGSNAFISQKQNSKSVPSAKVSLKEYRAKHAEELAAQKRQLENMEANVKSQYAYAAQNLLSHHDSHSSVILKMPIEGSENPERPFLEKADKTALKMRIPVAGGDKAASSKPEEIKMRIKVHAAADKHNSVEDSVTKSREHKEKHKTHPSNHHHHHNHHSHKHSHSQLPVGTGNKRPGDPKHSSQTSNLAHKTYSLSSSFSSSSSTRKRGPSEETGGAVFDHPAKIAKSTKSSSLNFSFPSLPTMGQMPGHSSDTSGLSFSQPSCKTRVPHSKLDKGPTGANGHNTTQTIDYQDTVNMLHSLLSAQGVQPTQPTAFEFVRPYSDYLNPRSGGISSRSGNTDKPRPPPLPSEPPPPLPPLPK

`Cc1ccc2cc1-c1nc(ncc1Cl)Nc1cccc(c1)CNCCCCO2` [Compound 36, 2^5-chloro-1^6-methyl-11-oxy-3,6-diaza-2(4,2)-pyrimidina-1,4(1,3)-dibenzocycloundecaphane] gave an IC50 (CDK9) of less than 100 nM.

`Clc1cnc2nc1-c1cnn(c1)CC/C=C\CNc1cccc(c1)N2` [Compound 31, (1^4Z,7Z)-2^5-chloro-1^1H-3,5-diaza-2(4,2)-pyrimidina-1(4,1)-pyrazola-4(1,3)-benzenacyclodecaph an-7-ene] gave an IC50 (CDK9) of less than 100 nM, an IC50 (HCC1187) of 250 to 1000 nM and an IC50 (MV-4-11) of less than 250 nM.

`Cc1ccc2cc1-c1nc(ncc1Cl)Nc1cnn(c1)CCCCCN2` [Compound 28, (E)-2^5-chloro-1^6-methyl-4^1hydro-3,10-diaza-2(4,2)-diaza-2(4,2)-pyrimidina-4(4,1)-pyrazola-1(1, 3)-benzenacyclodecaphane] showed an IC50 (CDK9) of less than 100 nM and an IC50 (MV-4-11) of less than 250 nM.

`Clc1cnc2nc1N1CCC(C1)NCCCNCc1cccc(c1)N2` (stereo not shown) [Compound 43, 2^5-chloro-3,6,10-triaza-2(4,2)-pyrimidina-1(1,3)-pyrrolidina-4(1,3)-benzenacyclodecaphane] was tested, and the IC50 (CDK9) was 500 to 1000 nM.

For `Cc1ccc2cc1-c1nc(ncc1Cl)Nc1cccc(c1)CNCCCN2` [Compound 35, 2^5-chloro-1^6-methyl-3,6,10-triaza-2(4,2)-pyrimidina-1,4(1,3)-dibenenacyclodecaphane], the IC50 (CDK9) was less than 100 nM, the IC50 (HCC1187) was less than 250 nM and the IC50 (MV-4-11) was less than 250 nM.

`Clc1cnc2nc1NCCCCCn1cc(cn1)N2` [Compound 47, (E)-1^5-chloro-3^1H-2,9-diaza-1(2,4)-pyrimidina-3(4,1)-pyrazolacyclononaphane] gave an IC50 (CDK9) of 100 to 500 nM.

Work on `Clc1cnc2nc1N1CCC(C1)OCCCNCc1cccc(c1)N2` (stereo not shown) [Compound 45, 2^5-chloro-10-oxa-3,6-diaza-2(4,2)-pyrimidina-1(1,3)-pyrrolidina-4(1,3)-benzenacyclodecaphane] yielded an IC50 (CDK9) of 100 to 500 nM.

For `COc1ccc2cc1-c1nc(ncc1F)Nc1cccc(c1)NCCCCN2` [Compound 40, 2^5-fluoro-1^6-methoxy-3,5,10-triaza-2(4,2)-pyrimidina-1,4(1,3)-dibenzenacyclodecaphane], the IC50 (CDK9) was less than 100 nM.

`Cc1nc2sc1-c1nc(ncc1F)Nc1cccc(c1)NCCOCCN2` [Compound 5, 2^5-fluoro-1^4-methyl-8-oxa-3,5,11-triaza-1(5,2)-thiazol-2(4,2)-pyrimidina-4(1,3)-benzenacyclodec aphane] was tested, and the IC50 (CDK9) was less than 100 nM and the inhibition at 0.01 µM (CDK9; compound at 10 nM, read-out: Inhibition rate on CDK9 kinase activity) was 25 to 49%.

With `Cc1ccc2cc1-c1nc(ncc1F)Nc1cccc(c1)NC/C=C\CN2` [Compound 29, (Z)-2^5-fluoro-1^6-methyl-3,5,10-triaza-2(4,2)-pyrimidina-1,4(1,3)-dibenzenacyclodecaphan-7-ene] the IC50 (CDK9) was less than 100 nM.

In the case of `Cc1nc2sc1-c1nc(ncc1F)Nc1cccc(c1)NC/C=C\CN2` [Compound 6, (Z)-2^5-fluoro-1^4-methyl-3,5,10-triaza-1(5,2)-thiazolin-2(4,2)-pyrimidina-4(1,3)-benzenacyclodec aphan-7-ene], the IC50 (CDK9) is reported as 100 to 500 nM.

Compound `Cc1ccc2cc1-c1nc(ncc1Cl)Nc1cnn(c1)CC/C=C\CN2` [Compound 27, (4^4E,7Z)-2^5-chloro-1^6-methyl-4^1hydro-3,10-diaza-2(4,2)-pyrimidina-4(4,1)-pyrazole-1(1,3)-benz enecyclodecane-7-ene] has an IC50 (CDK9) of less than 100 nM.

Work on `Clc1cnc2nc1-c1cnn(c1)CCCCCNc1cccc(c1)N2` [Compound 32, (Z)-2^5-chloro-1^1H-3,5-diaza-2(4,2)-pyrimidina-1(4,1)-pyrazola-4(1,3)-benzenacyclodecaphane] yielded an IC50 (CDK9) of less than 100 nM.

`Cc1ccc2cc1-c1nc(ncc1Cl)Nc1cnn(c1)CCOCCN2` [Compound 41, (E)-2^5-chloro-1^6-methyl-4^1H-7-oxa-3,10-diaza-2(4,2)-pyrimidina-4(4,1)-pyrazola-1(1,3)-benzena cyclodecaphane] gave an IC50 (CDK9) of less than 100 nM, an IC50 (HCC1187) of less than 250 nM and an IC50 (MV-4-11) of less than 250 nM.

In the case of `Fc1cnc2nc1-c1cccc(c1)NC/C=C\CNc1cccc(c1)N2` [Compound 37, (Z)-2^5-fluoro-3,5,10-triaza-2(4,2)-pyrimidina-1,4(1,3)-dibenzenacyclooctyna-7-ene], the IC50 (CDK9) is reported as less than 100 nM.

With `Cc1ccc2cc1-c1nc(ncc1F)Nc1cccc(c1)NCCCCN2` [Compound 30, 2^5-fluoro-1^6-methyl-3,5,10-triaza-2(4,2)-pyrimidina-1,4(1,3)-dibenzenacyclodecaphane] the IC50 (CDK9) was less than 100 nM.

`CN1CCN(c2ccc3cc2COCCCCCNc2nc(ncc2Cl)N3)CC1` [Compound 21, 1^5-chloro-3^4-(4-methylpiperazin-1-yl)-5-oxa-2,11-diaza-1(2,4)-pyrimidina-3(1,3)-benzenacyclou ndecaphane] showed an IC50 (CDK9) of 100 to 500 nM.

In the case of `Cc1ccc2cc1-c1nc(ncc1Cl)Nc1cnn(c1)CCNCCN2` [Compound 46, (E)-2^5-chloro-1^6-methyl-4^1H-3,7,10-triaza-2(4,2)-pyrimidina-4(4,1)-pyrazola-1(1,3)-benzenacycl odecaphane], the IC50 (CDK9) is reported as less than 100 nM, the IC50 (HCC1187) is reported as 250 to 1000 nM and the IC50 (MV-4-11) is reported as 250 to 1000 nM.

For `COc1ccc2cc1-c1nc(ncc1F)Nc1cccc(c1)NC/C=C\CN2` [Compound 39, (Z)-2^5-fluoro-1^6-methoxy-3,5,10-triaza-2(4,2)-pyrimidina-1,4(1,3)-dibenzenacyclooctyna-7-ene], the IC50 (CDK9) was less than 100 nM, the IC50 (HCC1187) was 1000 to 5000 nM and the IC50 (MV-4-11) was 250 to 1000 nM.

`Clc1cnc2nc1-c1cnn(c1)CCCCCCn1cc(c(Cl)n1)N2` [Compound 33, (1^4Z,4^4E,7Z)-2^5,4^3-chloro-1^1H,4^1H-3-aza-2(4,2)-pyrimidina-1,4(4,1)-bipyrazolacyclodecaphane] gave an IC50 (CDK9) of 500 to 1000 nM.

`Clc1cnc2nc1-c1cccc(c1)OCCCCNCc1cccc(c1)N2` [Compound 34, 2^5-chloro-11-oxa-3,6-diaza-2(4,2)-pyrimidina-1,4(1,3)-dibenzenacycloundecaphane] gave an IC50 (CDK9) of less than 100 nM.

Work on `Fc1cnc2nc1-c1cccc(c1)NCCCCNc1cccc(c1)N2` [Compound 38, 2^5-fluoro-3,5,10-triaza-2(4,2)-pyrimidina-1,4(1,3)-dibenzenacyclodecaphane] yielded an IC50 (CDK9) of less than 100 nM, an IC50 (HCC1187) of 250 to 1000 nM and an IC50 (MV-4-11) of 250 to 1000 nM.

With `CN1CCCCCNCc2cccc(c2)Nc2ncc(Cl)c1n2` [Compound 25, 1^5-chloro-11-methyl-2,5,11-triaza-1(2,4)-pyrimidina-3(1,3)-benzocycloundecaphane] the IC50 (CDK9) was less than 100 nM.

With `Cc1ccc2cc1-c1nc(ncc1Cl)Nc1cccc(c1)NCCCCN2` [Compound 22, 2^5-chloro-1^6-methyl-3,5,10-triaza-2(4,2)-pyrimidina-1,4(1,3)-dibenzocyclodecane] the IC50 (CDK9) was less than 100 nM.

`Clc1cnc2nc1N1CCC(C1)NCCCCNCc1cccc(c1)N2` (stereo not shown) [Compound 44, 2^5-chloro-3,6,11-triaza-2(4,2)-pyrimidina-1(1,3)-pyrrolidina-4(1,3)-benzenacycloalkaphane] was tested, and the IC50 (CDK9) was 500 to 1000 nM.

In the case of `c1cc2cc(c1)Nc1nccc(n1)NCCCCCNC2` [Compound 24, 2,5,11-triaza-1(2,4)-pyrimidina-3(1,3)-benzocycloundecaphane], the IC50 (CDK9) is reported as less than 100 nM.
